{"source": "patent US9708247B2", "about": "“Modulators of the eIF2alpha pathway” (The Regents of the University of California, priority 2013, dated 2017)", "key": {"caspase 3/7": {"tested_on": "caspase 3/7", "test": "Caspase 3/7 activation in Hela cells", "assay_type": "cell-based, human", "conditions": "tunicamycin or thapsigargin plus 25 nM ISRIB", "experimental": "(§1) FIGS. 5A-5D. […]\nHela cells were plated in 96 well Corning plates at 0.4×10^4 cells/well 24 hours prior to imaging. […] In order to quantify the total number of cells, Vybrant DyeCycle Green staining solution (1 μM) was added directly to the well immediately after the final Caspase-3/7 scan and incubated for 1 h prior to acquiring final images. Data was analyzed using IncuCyte analysis software."}, "[1]": {"tested_on": "rabbit reticulocyte in vitro translation system", "test": "Rabbit reticulocyte in vitro translation assay (luciferase mRNA)", "assay_type": "biochemical", "conditions": "rabbit reticulocyte lysate", "experimental": "FIG. 24. ISRIB enhances production of luciferase in a rabbit reticulocyte in vitro translation assay; luciferase mRNA was added to the lysates in the presence or absence of different concentrations of ISRIB; the amount of luciferase protein produced was quantitated by addition of One-Glo and the Relative luminescent units were normalized to no-addition control."}, "HEK293T cells": {"tested_on": "HEK293T cells", "assay_type": "cell-based, human", "conditions": "2 μg/mL tunicamycin plus 200 nM ISRIB, 24 h", "text": "as §1"}, "CHOP": {"tested_on": "CHOP", "test": "CHOP immunofluorescence in U2OS cells", "assay_type": "cell-based, human", "conditions": "100 nM thapsigargin 2 h, 200 nM ISRIB", "experimental": "FIGS. 4A-4B. ISRIB impairs induction of the transcriptional network controlled by ATF4; (FIG. 4A) ER-stress dependent induction of CHOP and GADD34 mRNA is impaired in cells treated with ISRIB; qPCR analysis of total RNA extracted from U2OS cells treated with 2 μg/ml of tunicamycin in the presence or absence of 200 nM ISRIB for the indicated times; mRNA levels for each sample were normalized to GAPDH (N=4); P values are derived from a one tail Student's t-test for unpaired samples; statistical significance: CHOP, P=0.0006 (*); GADD34, P=0.0008 (*); (FIG. 4B) ISRIB blocks CHOP production during ER stress; an immunofluorescence analysis of U2OS cells treated with 100 nM thapsigargin for 2 h in the presence or absence of 200 nM ISRIB is shown; a secondary Alexa Dye 488 anti-mouse antibody and rhodamine-phalloidin were used to visualize CHOP and actin, respectively.\nU2OS cells were seeded on Slide Flasks (Thermo Scientific) 18 h prior to processing for immunofluorescence. Cells (60% confluent) were fixed with 4% paraformaldehyde in PBS for 15 min. The cells were then rinsed 3 times with PBS and permeabilized with 0.3% Triton X-100. The fixed cells were rinsed 3 times with PBS and blocked for 1 h at room temperature in PBS supplemented with 0.1% Triton X-100 and 5% normal goat serum. […]"}, "RPMI8226 cells": {"tested_on": "RPMI8226 cells", "test": "Polysome gradient analysis in RPMI8226 cells", "assay_type": "cell-based, human", "conditions": "ER-stressed (5 μg/ml tunicamycin) and un-stressed cells, 1 μM ISRIB"}, "[2]": {"tested_on": "PERK signaling (ATF4, PERK, XBP1s)", "test": "Immunoblot analysis of PERK, ATF4 and XBP1s in HEK293T cells", "assay_type": "cell-based, human", "experimental": "Cells were lysed in SDS-PAGE loading buffer (1% SDS, 62.5 mM Tris-HCl pH 6.8, 10% glycerol). Lysates were sonicated and equal amounts were loaded on SDS-PAGE gels (BioRad). Proteins were transferred onto nitrocellulose and probed with primary antibodies diluted in Tris-buffered saline supplemented with 0.1% Tween 20 and 5% bovine serum albumin. The following antibodies were used: CREB-2 (C-20) (1:800) (Santa Cruz Biotechnologies); PERK (D11A8) (1:1000), PERK (C33E10) (1:1000), eIF2α (9722) (1:1000), phospho-eIF2α (Ser51) (D9G8) XP (3398) (1:1000) (Cell Signaling Technology); XBP1s (C-terminus) (1:500) (BioLegend); M2 Flag (1:1000) (Sigma). An HRP-conjugated secondary antibody (Amersham) was employed to detect immune-reactive bands using enhanced chemiluminescence (SuperSignal, Thermo Scientific)."}}, "data": [{"smiles": "O=C(COc1ccc(Cl)cc1)NC1CCC(NC(=O)COc2ccc(Cl)cc2)CC1", "note": "(stereo not drawn) [ISRIB]", "values": [{"measurement": "activity of caspases 3 and/or 7", "setting": "caspase 3/7", "result": "significantly induced"}, {"measurement": "translation of exogenously added mRNA", "setting": "[1]", "result": "enhances translation"}, {"measurement": "cell survival of ER-stressed cells (colony number and size)", "setting": "HEK293T cells", "result": "strong synergistic effect"}, {"measurement": "CHOP accumulation after induction of ER stress", "setting": "CHOP", "result": "no CHOP accumulation"}, {"measurement": "translation in multiple myeloma cells", "setting": "RPMI8226 cells", "result": "increased translation"}, {"measurement": "XBP1 mRNA splicing and XBP1s production (IRE1 branch)", "setting": "[2]; ER stress plus 200 nM ISRIB", "result": "persisted"}, {"measurement": "PERK phosphorylation (mobility shift)", "setting": "[2]; ER-stressed HEK293T, 200 nM ISRIB", "result": "did not inhibit the mobility shift of PERK"}, {"measurement": "ATF4 induction after GCN2 or HRI activation", "setting": "[2]; HEK293T, cysteine/methionine starvation or HRI activator 6 μM, 5 h, 200 nM ISRIB", "result": "blocked ATF4 induction"}, {"measurement": "production of endogenous ATF4 upon ER stress", "setting": "[2]; HEK293T, tunicamycin or thapsigargin, 200 nM ISRIB, 3 h", "result": "blocked production of endogenous ATF4"}]}]}
